Experimental data taken from US6013626A (priority 1995, dated 2000).
Values joined by “and” are separate entries in the source; they are usually repeats but may differ in a detail not shown here. Equal entries are not always repeated. “Also recorded” adds a separate entry of the source. Where two headings read alike, the source gives them in different places.

Key:
[1] = tested on: murine leukemia (L1210 or P388), murine solid tumor, human solid tumor and low malignancy fibroblast (LML)
[2] = tested on: human tumor cell lines such as KB and LoVo; assay: Cytotoxicity against human tumor cell lines such as KB and LoVo; format: cell-based
[3] = tested on: murine and human tumors implanted in mice; format: in vivo; settings: for in vivo antitumor activity: tumors implanted in mice; for tumor burden T/C values: summary: Cryptophycin 1 in five early stage murine and two early stage human tumors, Cryptophycin 8 in all tumors tested to date
Procedure: (§1) Gross log kill is defined as T-C/3.2 Td where T is the median time in days for the tumors of the treated group to reach 750 mg, C is the median time in days for the tumors of the control group to reach 750 mg, and Td is the tumor volume doubling time.

[4] = tested on: Panc 03 (pancreatic ductal adenocarcinoma #03); settings: for Log Kill: 9 inj. IV
Procedure: as §1

[5] = Solvolysis (methanolysis) of the C-D ester bond; format: physicochemical; settings: methanol used in isolation scheme
Toxicity in mice = format: in vivo; settings: for cause of lethal toxicity observed during testing: in vivo testing
[6] = tested on: Colon 51 (colon adenocarcinoma #51); assay: In vivo activity, SC Colon 51 tumor; design: species or system mice
Procedure: as §1

[7] = tested on: Colon 38 (colon adenocarcinoma #38)
Procedure: as §1

Mam 16/C = assay: In vivo activity, SC Mam 16/C tumor; design: species or system mice
Procedure: as §1

colon adenocarcinoma #33 = assay: In vivo activity, early stage colon adenocarcinoma #33; design: species or system mice; settings: 8.1 mg/kg
Procedure: Gross log kill is defined as T-C/3.2 Td where T is the median time in days for the tumors of the treated group to reach 750 mg, C is the median time in days for the tumors of the control group to reach 750 mg, and Td is the tumor volume doubling time (T. H. Corbett et al., Cytotoxic Anticancer Drugs: Models and Concepts for Drug Discovery and Development, pp 35-87; Kluwer: Norwell, 1992).

[8] = tested on: murine and human tumors implanted in mice; settings: G. Trimurtulu et al. 1994; R. Barrow et al. 1995; cited from earlier work
H125 Human Adenosq-lung = format: in vivo, SCID mice; settings: Exp 1823; SC H125 Human Adenosq-lung; 8 inj. IV; total dose 14.4 mg/kg
Procedure: as §1

M17/0 (Adr. Sens.) = assay: In vivo activity, SC M17/0 tumor; design: species or system mice; settings: Exp 1833; SC M17/0 (Adr. Sens.); 5 inj. IV; total dose 5.4 mg/kg
Procedure: as §1

Human Sm Cell L. DMS273 = assay: In vivo activity, SC DMS273 tumor; settings: Exp 1596; SC Human Sm Cell L. DMS273 SCID; 6 inj. IV; total dose 7.3 mg/kg
Procedure: as §1

LNCaP Human Prostate = assay: In vivo activity, SC LNCaP tumor; design: species or system mice; settings: Exp 1841, 6 inj. IV, total dose 6.5 mg/kg
Procedure: as §1

[9] = tested on: fungi, especially strains of Cryptococcus; settings: R. E. Schwartz et al. 1990; cited from earlier work
MX-1 Human Breast = assay: In vivo activity, SC MX-1 tumor; design: species or system SCID mice; settings: Exp 1806; SC MX-1 Human Breast; 8 inj. IV; total dose 12 mg/kg
Procedure: as §1

[10] = tested on: Mam 16/Taxol (taxol-resistant mammary #16/C/RP); assay: In vivo activity, SC Mam 16/Taxol tumor; design: species or system mice; settings: Exp 1733, 5 inj. IV, total dose 16.5 mg/kg
Procedure: as §1

microtubule assembly = settings: C. D. Smith et al. 1994; compared with vinblastine; cited from earlier work
[11] = tested on: A-10 rat aortic smooth muscle cells; format: cell-based
Procedure: A-10 cells were grown to near-confluency on glass coverslips in BME/10% FBS. Compounds in PBS were added to the indicated final concentrations and cells were incubated for an additional 24 hours. For the staining of microtubules and intermediate filaments, the cells were fixed with cold methanol and incubated with PBS containing 10% calf serum to block nonspecific binding sites. Cells were then incubated at 37° C. for 60 min with either monoclonal anti-β-tubulin or with monoclonal anti-vimentin at dilutions recommended by the manufacturer. Bound primary antibodies were subsequently visualized by a 45-minute incubation with fluorescein-conjugated rabbit antimouse IgG. The coverslips were mounted on microscope slides and the fluorescence patterns were examined and photographed using a Zeiss Photomicroscope I11 equipped with epifluoroescence optics for fluorescein. […] PBS containing 100 nM TRITC-phalloidin was then added and the mixture was allowed to incubate for 45 min at 37° C. The cells were washed rapidly three times with PBS before the coverslips were mounted and immediately photographed as described above.
After 24 hours, microtubules and vimentin intermediate filaments were visualized by indirect immunofluorescence and microfilaments were stained using TRITC-phalloidin. The morphological effects of each drug were examined.
After 24 hours, microtubule organization was examined by immunofluorescence as described above.
The cells were then washed and incubated in drug-free medium for periods of 1 hour or 24 hours.

SKOV3 cells = assay: Reversibility of inhibition of SKOV3 cell proliferation; format: cell-based, human; settings: SKOV3 cells treated 24 hours with IC50 dose, then drug-free medium
Procedure: After 24 hours the cells were washed and incubated in drug-free medium for the time indicated. The cell density was determined by sulforhodamine B (SRB) staining as described in the Experimental Section, and is expressed as the mean ± sd adsorbance at 560 nm for triplicate samples in one of three experiments.

[12] = tested on: tumor (leukemia) and normal cell (CFUGM) lines; format: cell-based; settings: μg/disk per compound where printed
[13] = μg/disk differs per compound (0.2-250 μg/disk)
[14] = Exp 1769, SC C38, 15 inj. IV, 45 mg/kg TD
[15] = pancreatic ductal adenocarcinoma #03, 8.1 mg/kg

In the case of `COc1ccc(C[C@H]2NC(=O)/C=C/C[C@@H]([C@H](C)/C=C/c3ccccc3)OC(=O)[C@H](CC(C)C)OC(=O)[C@H](C)CNC2=O)cc1Cl` [Cryptophycin 3], the “Corbett Assay, Differential in Zone Units” value (shortened to “Corbett Assay, Differential”) [1] is reported as greater than 400, the “Corbett Assay, Type of Cytotoxicity” value [1, 13] is reported as “E/T” and the “IC50's” value [2] is reported as 2 to 4 ng/mL.
For `COc1ccc(C[C@H]2NC(=O)/C=C/C[C@@H]([C@H](C)[C@H]3O[C@@H]3c3ccccc3)OC(=O)[C@H](CC(C)C)OC(=O)CCNC2=O)cc1Cl` [Cryptophycin 21], the “in vivo antitumor activity” value [3] was “inactive”, the “Log Kill” value ([4]; Exp 1813, SC P03, 27 mg/kg TD) was “None” and the susceptibility to methanolysis [5] was “much more susceptible to methanolysis than Cryptophycin 1”.
In the case of `COc1ccc(CC2NC(=O)CCCC(C(C)C3OC3c3ccccc3)OC(=O)C(CC(C)C)OC(=O)C(C)CNC2=O)cc1Cl` (stereo not shown) [Cryptophycin 35], the “in vivo antitumor activity” value [3] is reported as “Good in vivo activity”.
With `COc1ccc(C[C@H]2NC(=O)/C=C/C[C@@H]([C@H](C)[C@@H](O)[C@@H](Cl)c3ccccc3)OC(=O)[C@H](CC(C)C)OC(=O)[C@H](C)CNC2=O)cc1Cl` [Cryptophycin 8] the “Corbett Assay, Differential” value [1] was greater than 500, the “Corbett Assay, Type of Cytotoxicity” value [1, 13] was “E/T” and the “cause of lethal toxicity observed during testing” value (Toxicity in mice) was “attributed to leucopenia”. For the same compound, the “Cures” value ([3]; summary b279) was “some cures”, the “gross log kill activity ratings” value ([3]; summary b279) was “+++ to ++++” and the “tumor burden T/C values” [3] was less than 10%. For the same compound, the Cures ([4]; Exp 1825, SC P03, 11 inj. IV, 106 mg/kg TD) was 0/5, the Cures ([6]; Exp 1900, 9 inj. IV, 67.5 mg/kg TD) was 0/5 and the “Log Kill” value [7, 14] was “None”. The T/C [7, 14] was greater than 100%, the “% Body Wt. Loss at Nadir” value ([7]; Exp 1887B, SC C38, 6 inj. IV, 30 mg/kg TD) was -2% and the Cures (Mam 16/C; Exp 1885, 7 inj. IV, 21.3 mg/kg TD) was 0/5.
For `COc1ccc(C[C@H]2NC(=O)/C=C/C[C@@H]([C@H](C)[C@H]3O[C@@H]3c3ccccc3)OC(=O)[C@H](CC(C)C)OC(=O)[C@H](C)CNC2=O)cc1` [Cryptophycin 2], the “Corbett Assay, Differential” value [1, 13] was greater than 400 zone units and the “Corbett Assay, Type of Cytotoxicity” value [1, 13] was “E/T”.
For `COc1ccc(C[C@H]2NC(=O)/C=C/C[C@@H]([C@H](C)/C=C/c3ccccc3)OC(=O)[C@H](CC(C)C)OC(=O)C(C)(C)CNC2=O)cc1Cl` [Cryptophycin 51], the “IC50's” value [2] was 2 to 4 ng/mL.
For `COc1ccc(C[C@H]2NC(=O)/C=C/C[C@@H]([C@H](C)[C@H]3O[C@@H]3c3ccccc3)OC(=O)[C@H](CC(C)C)OC(=O)C(C)(C)CNC2=O)cc1Cl` [Cryptophycin 52], the “acute and chronic toxicities” value (Toxicity in mice; in mice) was “greater than Cryptophycin 1”, the “IC50's” value [2] was 0.025 to 0.05 ng/mL and the “in vivo antitumor activity” value [3] was “antitumor activity is seen at sublethal levels; also recorded: comparable in vivo activity to Cryptophycin 1”. The “gross (tumor cell) log kill” value [4, 15] was less than 2, the “tumor burden T/C” value [4, 15] was 16% and the “gross (tumor cell) log kill” value (colon adenocarcinoma #33) was less than 2. The “tumor burden T/C” value (colon adenocarcinoma #33) was 4%.
In the case of `COc1ccc(C[C@H]2NC(=O)/C=C/C[C@@H]([C@H](C)[C@H]3O[C@@H]3c3ccccc3)OC(=O)[C@H](CC(C)C)OC(=O)[C@H](C)CNC2=O)cc1Cl` [Cryptophycin 1], the “activity against subcutaneously transplanted solid tumors in mice” value [8] is given as “very active against subcutaneously transplanted solid tumors in mice”, the “Corbett Assay, Differential” value [1] is given as greater than 400 and the “Corbett Assay, Type of Cytotoxicity” value [1, 13] is given as “E/T”. For the same compound, the Cures (H125 Human Adenosq-lung) was 0/5, the “Log Kill” value (H125 Human Adenosq-lung) was 1.1 and the “cause of lethal toxicity observed during testing” value (Toxicity in mice) was “attributed to leucopenia”. The Cures (M17/0 (Adr. Sens.)) was 0/5, the “% Body Wt. Loss at Nadir” value (Human Sm Cell L. DMS273) was 0% and the Cures (Human Sm Cell L. DMS273) was 0/5. The “Log Kill” value (Human Sm Cell L. DMS273) was less than 1, the Cures (LNCaP Human Prostate) was 0/5 and the “Log Kill” value (LNCaP Human Prostate) was less than 1. The antifungal activity [9] was “very active against fungi, especially strains of Cryptococcus”, the “log kill values, range over trials” value ([3]; summary b714) was less than 1 to 2 and the “tumor burden T/C values” [3] was “less than 10%”. The “in vivo antitumor activity” value [3] was “shows antitumor activity; also recorded: very promising activity”, the Cures (MX-1 Human Breast) was 0/5 and the “Log Kill” value (MX-1 Human Breast) was 2.0. For the same compound, the Cures [10] was 0/4, the “inhibition of microtubule assembly” value (microtubule assembly) was “irreversibly inhibiting mircotubule assembly” and the Cures ([6]; Exp 1636, 7 inj. IV, total dose 28.1 mg/kg) was 0/5. The “% Body Wt. Loss at Nadir” value ([7]; Exp 1560, SC Colon 38, 8 inj. IV, total dose 10.3 mg/kg) was “Gain” and the Cures (Mam 16/C; Exp 1720, 5 inj. IV, total dose 13.2 mg/kg) was 0/5.
For `CC(C)C[C@@H]1OC(=O)[C@H](C)CNC(=O)[C@@H](Cc2ccc(O)c(Cl)c2)NC(=O)/C=C/C[C@@H]([C@H](C)[C@H]2O[C@@H]2c2ccccc2)OC1=O` [Cryptophycin 16], the “Log Kill” value ([4]; Exp 1878, SC P03, 82 mg/kg TD) was “None”.
In the case of `COc1ccc(C[C@H]2NC(=O)/C=C/C[C@@H]([C@H](C)/C=C/c3ccccc3)OC(=O)[C@H](CC(C)C)OC(=O)[C@H](C)CNC2=O)cc1` [Cryptophycin 4], the “Corbett Assay, Differential” value [1, 13] is reported as greater than 400 zone units and the “Corbett Assay, Type of Cytotoxicity” value [1, 13] is reported as “E/T”.
In the case of `CC[C@]1(O)C[C@@H]2CN(CCc3c([nH]c4ccccc34)[C@@](C(=O)OC)(c3cc4c(cc3OC)N(C)[C@H]3[C@@](O)(C(=O)OC)[C@H](OC(C)=O)[C@]5(CC)C=CCN6CC[C@]43[C@@H]65)C2)C1` [Vinblastine], the “effect on taxol-stabilized microtubules” value ([11]; A-10 cells pretreated 3 hours with 10 μM taxol, then 100 nM vinblastine or 10 nM cryptophycin compound, 24 hours) is reported as “pretreatment with taxol prevented microtubule depolymerization”, the “effect on vimentin intermediate filaments” value ([11]; A-10 cells, 24 hours, 100 nM vinblastine or 10 nM cryptophycin compounds) is reported as “vimentin intermediate filaments collapsed” and the effect on microtubules ([11]; A-10 cells, 24 hours, 2 μM cytochalasin B, 100 nM vinblastine or 10 nM cryptophycin compounds) is reported as “marked depletion of microtubles”. The “reversibility of microtubule depolymerization after removal of compound” value ([11]; A-10 cells, 24 hr with 100 nM vinblastine or 10 nM cryptophycins, then drug-free medium 1 hour or 24 hours) was “complete morphological recovery by 24 hour” and the “increase in cell number in the 24 hours following removal of the drug” value (SKOV3 cells) was “approximately 3 fold”.
For `COc1cc([C@@H]2c3cc4c(cc3[C@@H](O[C@@H]3O[C@@H]5CO[C@@H](C)O[C@H]5[C@H](O)[C@H]3O)[C@H]3COC(=O)[C@H]23)OCO4)cc(OC)c1O` [VP-16, etoposide, reference compound], the “Valeriote Assay, Differential in Zone Units” value [12] was 260 zone units and the “Corbett Assay, Differential” value [1, 13] was 350 zone units and 530 zone units.
In the case of `CC(=O)O[C@H]1C(=O)[C@@]2(C)[C@H]([C@H](OC(=O)c3ccccc3)[C@]3(O)C[C@H](OC(=O)[C@H](O)[C@@H](NC(=O)c4ccccc4)c4ccccc4)C(C)=C1C3(C)C)[C@]1(OC(C)=O)CO[C@@H]1C[C@@H]2O` [Taxol, taxol, reference compound], the “Corbett Assay, Differential” value [1, 13] is reported as no less than 400 zone units and the “Corbett Assay, Type of Cytotoxicity” value [1, 13] is reported as “M/H/T”.
